Patent US8722634B2, “Use of compounds extracted from Momordica charantia L. in the manufacture of medicaments for prevention and treatment of diabetes and obesity” (Shanghai Institute of Materia Medica, Chinese Academy of …, priority 2008, dated 2014)

Key:
[1] = system: L6 muscle cells; assay: glucose uptake in L6 muscle cells (2-[3H]-deoxy-D-glucose); assay type: cell-based; conditions: 10 μM, 2 hours, p<0.05 vs control
Protocol: Testing the effect of momordicoside A on the glucose uptake in L6 muscle cells (FIG. 1)
After L6 cells were differentiated to myotube completely, they were incubated in serum-free DMEM containing 0.5% BSA for 16 hours. […] After that, they were washed with 1×PBS preheated at 37° C. twice, and 0.5% BSA Krebs buffer (NaCl 140 mM, KCl 5 mM, MgSO4 2.5 mM, CaCl2 1 mM, HEPES 20 mM, pH7.4) without or with insulin (final concentration 100 nM), followed by incubation at 37° C. for 40 minutes. A 2-[1,2-3H(N)]-deoxy-D-glucose solution (final concentration 0.5 μCi/ml) was added therein and incubated for 10 minutes at 37° C. Then the reaction was terminated by washing three times with ice-cold 1×PBS and 0.15 ml of 0.1% Triton was added therein for the lysis of the cells the counting in a liquid-scintillation counter. After the CPM value was corrected with the protein amount, the glucose uptake amount of L6 cells was calculated.
The data are shown in mean±standard error (X±SE) (n=3). The significance was shown as *p<0.05 compared with control groups under corresponding conditions.

[2] = system: glucose transporter 4 (GLUT4); assay: translocation of glucose transporter 4 (GLUT4) to the cell membrane in L6 myotubes; assay type: cell-based; conditions: 10 μM, 2 hours
Protocol: Effects of isolated compounds on the translocation of glucose transporter 4 (GLUT4) from cytosol to the cell membrane (FIG. 2)
After L6 cells were differentiated to myotube completely, they were treated for 2 hours with various test compounds, namely trihydroxycucurbita-5,23(E)-dien-19-al, 22(S),23(R),24(R),25-tetrahydroxycucurbita-5-ene, momordicoside A, momordicoside B (final concentration 10 μM, each) or 100 nM insulin (as positive control). The data were expressed as mean±standard error (X±SE) (n=3-4). The significance was shown as ***p<0.001 compared with solvent control groups.

[3] = system: adenosine monophosphate-activated protein kinase (AMPK); assay: AMPK activation (pACC, pAMPK) in 3T3-L1 adipose cells; assay type: cell-based; conditions: for activation of the AMPK signaling pathway (pACC, pAMPK): 10 μM, 60 minutes
Protocol: Testing the activities of trihydroxycucurbita-5,23(E)-diene-19-aldehyde and 22(S), 23(R),24(R),25-tetrahydroxy cucurbita-5-ene on adenosine monophosphate-activated protein kinase (AMPK) (FIG. 3)
3T3-L1 adipose cells was incubated for 60 minutes in a medium containing 10 μM compounds, or in a medium containing 2 mM 5-amino4-imidazolecarboxamide nucleotide (AIC, positive control) or DMSO as a solvent control, followed by being treated with 100 nM insulin for 2 minutes or 25 minutes. Then the proteins pACC and pAMPK in cell lysate were determined with corresponding antibodies. The total amount of protein 14-3-3 was used as the quality control for sample loading.
(§1) According the processes in experimental examples 2 and 3, 22(S),23(R),24(R),25-tetrahydroxycucurbita-5-ene was tested at different concentrations (10^−10, 10^−7, 10^−6, 10^−5 M).

[4] = system: glucose transporter 4 (GLUT4); assay: GLUT4 translocation in 3T3-L1 adipose cells; assay type: cell-based
Protocol: Dose-dependent effect of 22(S),23(R),24(R),25-tetrahydroxycucurbita-5-ene on GLUT4 translocation and the phosphorylation of AMPK in 3T3-L1 adipose cells (FIG. 4)
as §1
A. 10 μM 22(S),23(R),24(R),25-tetrahydroxycucurbita-5-ene or 100 nM insulin (positive control) was added in the differentiated 3T3-L1 adipose cells using DMSO (final concentration of DMSO: 0.2%) as a solvent with or without wortmanin (an inhibitor of monophosphoinositide 3-kinase), and the activity on GLUT4 translocation was determined as described in experimental example 2. The data were expressed in mean±standard error (X±SE). The significances were shown as *p<0.05 and **p<0.01 compared with the solvent control groups.

[5] = system: protein kinase B (Akt); assay: phosphorylation of protein kinase B [Akt (S473)] in 3T3-L1 adipose cells; assay type: cell-based; conditions: 10 μM, 30 minutes
Protocol: (§2) B. 3T3-L1 adipose cells and L6 muscle cells were incubated for 30 minutes in a medium containing 10 μM trihydroxycucurbita-5,23(E)-dien-19-al or 22(S),23(R),24(R),25-tetrahydroxycucurbita-5-ene, or a medium containing 100 nM insulin (positive control) or DMSO as a solvent control. The phosphorylation of protein kinase B [Akt (S473)] and the total protein kinase B (14-3-3) were determined with corresponding antibodies. The significances are shown as *p<0.05 and **p<0.01 compared with the solvent control groups.

[6] = system: protein kinase B (Akt); assay: phosphorylation of protein kinase B [Akt (S473)] in L6 muscle cells; assay type: cell-based; conditions: 10 μM, 30 minutes
Protocol: as §2

[7] = system: alloxan-induced diabetic mice; conditions: 400 mg/kg, effect reported was very mild; cited from earlier work
[8] = tested at 10^−10, 10^−7, 10^−6, 10^−5 M

Compound | glucose uptake in L6 cells under the stimulus of insulin ([1]; 100 nM insulin) | glucose uptake in L6 cells at base level ([1]; without insulin) | translocation of glucose transporter 4 (GLUT4) to the cell membrane [2] | activation of the AMPK signaling pathway (pACC, pAMPK) [3] | concentration at which the maximal effect on phosphorylation of AMPK was reached [3, 8] | effect of wortmanin (PI3-kinase inhibitor) on the compound's activity on GLUT4 translocation ([4]; 10 μM, with or without wortmanin) | concentration at which the maximal effect on GLUT4 translocation was reached [4, 8] | phosphorylation of protein kinase B [Akt (S473)] [5] | phosphorylation of protein kinase B [Akt (S473)] [6] | hypoglycemic effect [7]
momordicoside A | increased significantly | increased significantly | – | – | – | – | – | – | – | –
C[C@H]([C@H](O)[C@@H](O)[C@@H](O)C(C)(C)O)[C@H]1CC[C@@]2(C)C3CC=C4C(CC[C@H](O)C4(C)C)[C@]3(C)CC[C@]12C (stereo partly drawn) [22(S),23(R),24(R),25-tetrahydroxycucurbita-5-ene] | – | – | capable of promoting the translocation | capable of activating the AMPK signaling pathway significantly | 10^−6 M | did not affect the activity | 10^−6 M | not able to increase the phosphorylation of protein kinase B | not able to increase the phosphorylation of protein kinase B | –
C[C@H](C/C=C/C(C)(C)O)[C@H]1CC[C@@]2(C)C3[C@@H](O)C=C4C(CC[C@H](O)C4(C)C)[C@]3(C=O)CC[C@]12C (stereo partly drawn) [trihydroxycucurbita-5,23(E)-dien-19-al] | – | – | capable of promoting the translocation | capable of activating the AMPK signaling pathway significantly | – | – | – | not able to increase the phosphorylation of protein kinase B | not able to increase the phosphorylation of protein kinase B | showed hypoglycemic effect
CC(CC=CC(C)(C)O)C1CCC2(C)C3C=CC45OCC3(CCC12C)C4CCC(O)C5(C)C (stereo not drawn) [5β, 19-epoxy-3β,25-dihydroxycucurbita-6,23(E)-diene] | – | – | – | – | – | – | – | – | – | showed hypoglycemic effect
